This passage reports EC50 results from US7326703B2, “(1,10B-Dihydro-2-(aminocarbonyl-phenyl)-5H-pyrazolo[1,5-c][1,3]benzoxazin-5-yl)phenyl methanone derivatives as HIV viral replication inhibitors” (priority 2004, dated 2008).

Where two headings read alike, the source gives them in different places.

For assay [1], the system named is HIV-1 strain LAI. Put plainly: Cellular anti-viral assay in MT4-LTR-EGFP cells, wild type HIV-1 strain LAI. Type of assay: cell-based. The following applies: Human immunodeficiency virus 1, 72 h, read-out: Activity class for HIV-1-LAI test. The procedure: (§1) The compounds were tested in a cellular assay using the MT4-LTR-EGFP cells for anti-viral activity. […] The cellular assay was performed according to the following procedure.
(§2) HIV- or mock-infected MT4-LTR-EGFP cells were incubated for three days in the presence of various concentrations of the inhibitor. Upon infection, the GFP reporter is activated by the viral tat protein. At the end of the incubation period, the GFP signal was measured. In the virus control samples (in the absence of any inhibitor) the maximal fluorescent signal was obtained. The inhibitory activity of the compound was monitored on the virus-infected cells and was expressed as EC50 and EC90. These values represent the amount of the compound required to protect 50% and 90%, respectively, of the cells from virus infection. The toxicity of the compound was measured on the mock-infected cells and was expressed as CC50, which represents the concentration of compound required to inhibit the growth of the cells by 50%. The selectivity index (SI) (ratio CC50/EC50) is an indication of the selectivity of the anti-HIV activity of the inhibitor.

The test system of assay [2] is HIV-1-MDR. Nature of the assay: Cellular anti-viral assay in MT4-LTR-EGFP cells, multi-drug resistant HIV-1 virus. In kind it is cell-based. The following applies: Human immunodeficiency virus 1, 72 h, read-out: Activity class for HIV-1-MDR test. Here is the method:
as §1, §2

Setting [3] is: MT4-LTR-EGFP cells, three days incubation, GFP signal, average EC50 used where more than one run.

With `O=C(NC1CCCC1)c1ccc(C2=NN3C(C(=O)c4cccc(Br)c4)Oc4ccccc4C3C2)cc1` (stereo not drawn) [Compound 58], the EC50 in assay [1] (setting [3]) and in assay [2] was < 1 µM throughout.

On to `CC(C)(C)OC(=O)N1CCN(C(=O)c2ccc(C3=NN4C(C(=O)c5ccc(F)cc5)Oc5ccccc5C4C3)cc2)CC1` (stereo not drawn) [Compound 14], for which the EC50 in assay [1] (setting [3]) and in assay [2] was > 10 µM throughout.

With `CC(C)(C)c1ccc(C(=O)C2Oc3ccccc3C3CC(c4ccc(C(=O)NC5CCCC5)cc4)=NN23)cc1` (stereo not drawn) [Compound 50], the EC50 in assay [1] (setting [3]) and in assay [2] was < 1 µM in each case.

In the case of `CN1CCN(C(=O)c2ccc(C3=NN4C(C(=O)c5ccc(Br)cc5)Oc5ccccc5C4C3)cc2)CC1` (stereo not drawn) [Compound 8], the EC50 in assay [2] was > 10 µM.

On to `O=C(NCc1ccccn1)c1ccc(C2=NN3C(C(=O)c4ccc(F)cc4)Oc4ccccc4C3C2)cc1` (stereo not drawn) [Compound 16], for which the EC50 in assay [1] (setting [3]) and in assay [2] was > 10 µM throughout.

As for `CN(C)c1ccc(NC(=O)c2ccc(C3=NN4C(C(=O)c5ccc(F)cc5)Oc5ccccc5C4C3)cc2)cc1` (stereo not drawn) [Compound 27], the EC50 in assay [1] (setting [3]) and in assay [2] was < 1 µM in each case.

Consider `C=CCN(C(=O)c1ccc(C2=NN3C(C(=O)c4ccc(F)cc4)Oc4ccccc4C3C2)cc1)C1CCCCC1` (stereo not drawn) [Compound 37], for which the figures for the EC50 in assay [1] (setting [3]) and in assay [2] were 1 to 10 µM and > 10 µM, respectively.

Consider `O=C(NCc1cccs1)c1ccc(C2=NN3C(C(=O)c4ccc(F)cc4)Oc4ccccc4C3C2)cc1` (stereo not drawn) [Compound 30], for which the EC50 in assay [1] (setting [3]) and in assay [2] was > 10 µM in each case.

`O=C(NCCN1CCCC1)c1ccc(C2=NN3C(C(=O)c4ccc(F)cc4)Oc4ccccc4C3C2)cc1` (stereo not drawn) [Compound 40]: the EC50 in assay [1] (setting [3]) was 1 to 10 µM; in assay [2], > 10 µM.

Consider `CN(C)CCCNC(=O)c1ccc(C2=NN3C(C(=O)c4ccc(Br)cc4)Oc4ccccc4C3C2)cc1` (stereo not drawn) [Compound 9], for which the EC50 is < 1 µM in assay [1] (setting [3]) and > 10 µM in assay [2].

In the case of `CCNC(=O)c1ccc(C2=NN3C(C(=O)c4ccc(F)cc4)Oc4ccccc4C3C2)cc1` (stereo not drawn) [Compound 32], the EC50 is > 10 µM in assay [1] (setting [3]) and 1 to 10 µM in assay [2].

For the molecule `O=C(NCc1ccccn1)c1ccc(C2=NN3C(C(=O)c4ccc(Br)cc4)Oc4ccccc4C3C2)cc1` (stereo not drawn) [Compound 4], the EC50 in assay [1] (setting [3]) lay in the range of 1 to 10 µM.

For the molecule `O=C(NC1CCCC1)c1ccc(C2=NN3C(C(=O)c4ccc(N5CCCCC5)cc4)Oc4ccccc4C3C2)cc1` (stereo not drawn) [Compound 49], the EC50 in assay [1] (setting [3]) is > 10 µM.

Turning to `O=C(NC1CCCC1)c1ccc(C2=NN3C(C(=O)c4ccc(F)cc4)Oc4ccccc4C3C2)cc1` (stereo not drawn) [Compound 18], in assay [1] (setting [3]), the EC50 was < 1 µM.

On to `CS(=O)(=O)c1ccc(C(=O)C2Oc3ccccc3C3CC(c4ccc(C(=O)NC5CCCC5)cc4)=NN23)cc1` (stereo not drawn) [Compound 53], for which the EC50 in assay [1] (setting [3]) and in assay [2] was < 1 µM each time.

Take `CN(C)CCN(C)C(=O)c1ccc(C2=NN3C(C(=O)c4ccc(F)cc4)Oc4ccccc4C3C2)cc1` (stereo not drawn) [Compound 39]: the EC50 in assay [1] (setting [3]) is < 1 µM; in assay [2] it was 1 to 10 µM.

`CC(C)(C)NCCNC(=O)c1ccc(C2=NN3C(C(=O)c4ccc(F)cc4)Oc4ccccc4C3C2)cc1` (stereo not drawn) [Compound 41]: the EC50 in assay [1] (setting [3]) is 1 to 10 µM; in assay [2], > 10 µM.

Regarding `O=C(c1ccc(F)cc1)C1Oc2ccccc2C2CC(c3ccc(C(=O)N4CCN(Cc5ccccc5)CC4)cc3)=NN12` (stereo not drawn) [Compound 15], the EC50 in assay [1] (setting [3]) and in assay [2] was > 10 µM in each case.

As to `N#Cc1ccc(C(=O)C2Oc3ccccc3C3CC(c4ccc(C(=O)NC5CCCC5)cc4)=NN23)cc1` (stereo not drawn) [Compound 44, 4-[5-(4-Cyano-Benzoyl)-1,10b-Dihydro-5H-Pyrazolo[1,5-c][1,3]Benzoxazin-2-yl]-N-Cyclopentyl-Benzamide], the EC50 in assay [1] and in assay [2] was < 1 µM in each case.

For the molecule `O=C(NC1CCCC1)c1ccc(C2=NN3C(C(=O)c4ccc(C5CCCCC5)cc4)Oc4ccccc4C3C2)cc1` (stereo not drawn) [Compound 54], the EC50 in assay [1] (setting [3]) and in assay [2] was 1 to 10 µM each time.

Take `CC(C)CC(C)NC(=O)c1ccc(C2=NN3C(C(=O)c4ccc(F)cc4)Oc4ccccc4C3C2)cc1` (stereo not drawn) [Compound 22]: the results for the EC50 in assay [1] (setting [3]) and in assay [2] were < 1 µM and > 10 µM, respectively.

Consider `O=C(c1ccc(F)cc1)C1Oc2ccccc2C2CC(c3ccc(C(=O)N4CCCCCC4)cc3)=NN12` (stereo not drawn) [Compound 17], for which the figures for the EC50 in assay [1] (setting [3]) and in assay [2] were < 1 µM and > 10 µM, respectively.

Take `CCc1ccc(C(=O)C2Oc3ccccc3C3CC(c4ccc(C(=O)NC5CCCC5)cc4)=NN23)cc1` (stereo not drawn) [Compound 47]: the EC50 in assay [1] (setting [3]) and in assay [2] was < 1 µM in each case.

Turning to `CCN(CC)CCNC(=O)c1ccc(C2=NN3C(C(=O)c4ccc(F)cc4)Oc4ccccc4C3C2)cc1` (stereo not drawn) [Compound 42], the results for the EC50 in assay [1] (setting [3]) and in assay [2] were 1 to 10 µM and > 10 µM, respectively.

Turning to `O=C(NCc1ccco1)c1ccc(C2=NN3C(C(=O)c4ccc(F)cc4)Oc4ccccc4C3C2)cc1` (stereo not drawn) [Compound 31], the EC50 in assay [1] (setting [3]) and in assay [2] was 1 to 10 µM throughout.

For `O=C(NC1CCCC1)c1ccc(C2=NN3C(C(=O)c4ccc(N5CCOCC5)cc4)Oc4ccccc4C3C2)cc1` (stereo not drawn) [Compound 48], the EC50 in assay [1] (setting [3]) and in assay [2] was 1 to 10 µM throughout.

For `COc1ccc(N(C)C(=O)c2ccc(C3=NN4C(C(=O)c5ccc(F)cc5)Oc5ccccc5C4C3)cc2)cc1` (stereo not drawn) [Compound 28], the EC50 in assay [1] (setting [3]) and in assay [2] was < 1 µM each time.

Consider `O=C(c1ccc(F)cc1)C1Oc2ccccc2C2CC(c3ccc(C(=O)N4CCc5ccccc5C4)cc3)=NN12` (stereo not drawn) [Compound 11], for which the EC50 in assay [1] (setting [3]) and in assay [2] was > 10 µM throughout.

Take `CN(C)CCN(Cc1ccccc1)C(=O)c1ccc(C2=NN3C(C(=O)c4ccc(F)cc4)Oc4ccccc4C3C2)cc1` (stereo not drawn) [Compound 43]: the EC50 in assay [1] (setting [3]) was 1 to 10 µM; in assay [2], > 10 µM.

For the molecule `COc1ccc(CNC(=O)c2ccc(C3=NN4C(C(=O)c5ccc(Br)cc5)Oc5ccccc5C4C3)cc2)cc1` (stereo not drawn) [Compound 5], the figures for the EC50 in assay [1] (setting [3]) and in assay [2] were < 1 µM and > 10 µM, respectively.

Turning to `O=C(NC1CCCCC1)c1ccc(C2=NN3C(C(=O)c4ccc(F)cc4)Oc4ccccc4C3C2)cc1` (stereo not drawn) [Compound 1], the results for the EC50 in assay [1] (setting [3]) and in assay [2] were 1 to 10 µM and > 10 µM, respectively.

For the molecule `COc1ccc(OC)c(CNC(=O)c2ccc(C3=NN4C(C(=O)c5ccc(F)cc5)Oc5ccccc5C4C3)cc2)c1` (stereo not drawn) [Compound 25], the EC50 in assay [1] (setting [3]) and in assay [2] was 1 to 10 µM in each case.

Consider `CN(C)CCCNC(=O)c1ccc(C2=NN3C(C(=O)c4ccc(F)cc4)Oc4ccccc4C3C2)cc1` (stereo not drawn) [Compound 3], for which the EC50 in assay [1] (setting [3]) and in assay [2] was > 10 µM in each case.

Consider `O=C(NCCc1ccccn1)c1ccc(C2=NN3C(C(=O)c4ccc(F)cc4)Oc4ccccc4C3C2)cc1` (stereo not drawn) [Compound 19], for which the EC50 in assay [1] (setting [3]) was 1 to 10 µM; in assay [2], > 10 µM.

Turning to `O=C(NCC1CCCCC1)c1ccc(C2=NN3C(C(=O)c4ccc(F)cc4)Oc4ccccc4C3C2)cc1` (stereo not drawn) [Compound 2], the EC50 in assay [1] (setting [3]) and in assay [2] was > 10 µM throughout.

In the case of `COc1ccc(NC(=O)c2ccc(C3=NN4C(C(=O)c5ccc(F)cc5)Oc5ccccc5C4C3)cc2)cc1` (stereo not drawn) [Compound 26], the EC50 in assay [1] (setting [3]) and in assay [2] was 1 to 10 µM throughout.

For the molecule `O=C(NC1CCCC1)c1ccc(C2=NN3C(C(=O)c4ccc([N+](=O)[O-])cc4)Oc4ccccc4C3C2)cc1` (stereo not drawn) [Compound 52], the EC50 in assay [1] (setting [3]) and in assay [2] was < 1 µM each time.

`COc1cccc(CNC(=O)c2ccc(C3=NN4C(C(=O)c5ccc(F)cc5)Oc5ccccc5C4C3)cc2)c1` (stereo not drawn) [Compound 24]: the EC50 in assay [1] (setting [3]) and in assay [2] was 1 to 10 µM in each case.

Take `O=C(NC1CCCC1)c1ccc(C2=NN3C(C(=O)c4ccc(Br)cc4)Oc4ccccc4C3C2)cc1` (stereo not drawn) [Compound 6]: the EC50 in assay [1] (setting [3]) was < 1 µM; in assay [2] it was > 10 µM.

Take `COc1ccccc1CNC(=O)c1ccc(C2=NN3C(C(=O)c4ccc(F)cc4)Oc4ccccc4C3C2)cc1` (stereo not drawn) [Compound 23]: the EC50 in assay [1] (setting [3]) and in assay [2] was > 10 µM throughout.

Regarding `O=C(NCCc1ccccn1)c1ccc(C2=NN3C(C(=O)c4ccc(Br)cc4)Oc4ccccc4C3C2)cc1` (stereo not drawn) [Compound 7], the EC50 is 1 to 10 µM in assay [1] (setting [3]) and > 10 µM in assay [2].

Turning to `CC(C)NC(=O)c1ccc(C2=NN3C(C(=O)c4ccc(F)cc4)Oc4ccccc4C3C2)cc1` (stereo not drawn) [Compound 33], the EC50 in assay [1] (setting [3]) and in assay [2] was < 1 µM each time.

Take `O=C(NCC1CCCO1)c1ccc(C2=NN3C(C(=O)c4ccc(F)cc4)Oc4ccccc4C3C2)cc1` (stereo not drawn) [Compound 12]: the EC50 is 1 to 10 µM in assay [1] (setting [3]) and > 10 µM in assay [2].

As for `CN(C)CCNC(=O)c1ccc(C2=NN3C(C(=O)c4ccc(F)cc4)Oc4ccccc4C3C2)cc1` (stereo not drawn) [Compound 13], the figures for the EC50 in assay [1] (setting [3]) and in assay [2] were 1 to 10 µM and > 10 µM, respectively.

As for `O=C(NCc1cccc(F)c1)c1ccc(C2=NN3C(C(=O)c4ccc(F)cc4)Oc4ccccc4C3C2)cc1` (stereo not drawn) [Compound 10], the EC50 in assay [1] (setting [3]) and in assay [2] was > 10 µM each time.

`CCCc1ccc(C(=O)C2Oc3ccccc3C3CC(c4ccc(C(=O)NC5CCCC5)cc4)=NN23)cc1` (stereo not drawn) [Compound 45]: the EC50 in assay [1] (setting [3]) and in assay [2] was < 1 µM throughout.

With `CN(C(=O)c1ccc(C2=NN3C(C(=O)c4ccc(F)cc4)Oc4ccccc4C3C2)cc1)C1CCCCC1` (stereo not drawn) [Compound 36], the EC50 in assay [1] (setting [3]) was < 1 µM.

On to `COc1ccc(C(=O)C2Oc3ccccc3C3CC(c4ccc(C(=O)NC5CCCC5)cc4)=NN23)cc1` (stereo not drawn) [Compound 51], for which, in assay [2], the EC50 was < 1 µM.
